Data: patent publication US9586931B2 (Merck Sharp & Dohme Corp., priority 2012, dated 2017)

The compounds below were run against T1, recombinant human GST-Syk (Homo sapiens, UniProt P43405) (assay: Homogeneous Time-Resolved Fluorescence (HTRF) assay for the recombinant human Syk enzyme). Settings: recombinant human GST-Syk 5 pM, ATP 25 μM, 10-dose titration 10 μM to 0.508 nM; read-out: rhSYK Activity IC50.
T1 construct: purchased Carna Biosciences 08-176
Format: biochemical
Method: Syk inhibition may be determined using the following assay protocol:
Homogeneous Time-Resolved Fluorescence (HTRF) assay for the recombinant human Syk enzyme: A recombinant GST-hSyk fusion protein was used to measure potency of compounds to inhibit human Syk activity. […] Final volume of the reaction was 10 μL. Phosphorylation of the peptide was allowed to proceed for 45 minutes at room temperature. To quench the reaction and detect the phosphorylated product, 2 nM of a Europium-anti-phosphotyrosine antibody (Perkin Elmer #AD0161) and 70 nM SA-APC (Perkin-Elmer #CR130-100) were added together in 15 mM Tris pH 7.5, 40 mM EDTA, 0.01% tween 20. Final volume of the quenching solution was 10 μL. The resulting HTRF signal was measured after 30 minutes on an EnVision (Perkin-Elmer) reader using a time-resolved fluorescence protocol.

| Structure (SMILES) | IC50 [nM] |
| --- | --- |
| Cc1cc(Nc2nccc(C(F)(F)F)n2)cc(-c2cn(C(C)C(O)CC#N)nn2)c1 (single isomer, unassigned) [Example 4.9, 3-hydroxy-4-[4-(3-methyl-5-{[4-(trifluoromethyl)pyrimidin-2-yl]amino}phenyl)-1H-1,2,3-triazol-1-yl]pentanenitrile] | 25.2 |
| Cc1cc(Nc2cc(C(F)(F)F)ccn2)nc(-c2cn(CC3(O)CCOC3)nn2)c1 (single isomer, unassigned) [Example 5.11, 3-{[4-(4-methyl-6-{[4-(trifluoromethyl)pyridin-2-yl]amino}pyridin-2-yl)-1H-1,2,3-triazol-1-yl]methyl}tetrahydrofuran-3-ol] | 21.8 |
| Cc1cc(Nc2cc(C(F)(F)F)ccn2)nc(-c2cn(CC3(O)CCOC3)nn2)c1 (single isomer, unassigned) [Example 5.12, 3-{[4-(4-methyl-6-{[4-(trifluoromethyl)pyridin-2-yl]amino}pyridin-2-yl)-1H-1,2,3-triazol-1-yl]methyl}tetrahydrofuran-3-ol] | 11.2 |
| Cc1cc(Nc2nccc(C(F)F)n2)cc(-c2cn(C(C)C3CNC(=O)O3)nn2)c1 (single isomer, unassigned) [Example 7.2, 5-(1-(4-(3-((4-(Difluoromethyl)pyrimidin-2-yl)amino)-5-methylphenyl)-1H-1,2,3-triazol-1-yl)ethyl)oxazolidin-2-one] | 3.3 |
| Cc1cc(Nc2nccc(C(F)F)n2)cc(-c2cn(C(C)C3CNC(=O)O3)nn2)c1 (single isomer, unassigned) [Example 7.3, 5-(1-(4-(3-((4-(difluoromethyl)pyrimidin-2-yl)amino)-5-methylphenyl)-1H-1,2,3-triazol-1-yl)ethyl)oxazolidin-2-one] | 5.5 |
| Cc1cc(Nc2nccc(C(F)F)n2)cc(-c2cn(CC3CNC(=O)O3)nn2)c1 (single isomer, unassigned) [Example 7.4, 5-((4-(3-((4-(difluoromethyl)pyrimidin-2-yl)amino)-5-methylphenyl)-1H-1,2,3-triazol-1-yl)methyl)oxazolidin-2-one] | 1.8 |
| Cc1cc(Nc2nccc(C(F)F)n2)cc(-c2cn(CC3CNC(=O)O3)nn2)c1 (single isomer, unassigned) [Example 7.5, 5-((4-(3-((4-(difluoromethyl)pyrimidin-2-yl)amino)-5-methylphenyl)-1H-1,2,3-triazol-1-yl)methyl)oxazolidin-2-one] | 7.1 |
| Cc1cc(Nc2nccc(C(F)F)n2)cc(-c2cn(CC3OC(=O)NC3C)nn2)c1 (single isomer, unassigned) [Example 7.6, 5-((4-(3-((4-(difluoromethyl)pyrimidin-2-yl)amino)-5-methylphenyl)-1H-1,2,3-triazol-1-yl)methyl)-4-methyloxazolidin-2-one] | 10.2 |
| Cc1cc(Nc2nccc(C(F)F)n2)cc(-c2cn(CC3OC(=O)NC3C)nn2)c1 (single isomer, unassigned) [Example 7.7, 5-((4-(3-((4-(difluoromethyl)pyrimidin-2-yl)amino)-5-methylphenyl)-1H-1,2,3-triazol-1-yl)methyl)-4-methyloxazolidin-2-one] | 9.9 |
| Cc1cc(Nc2cc(C(F)F)ccn2)nc(-c2cn(CC3(C)CNC(=O)O3)nn2)c1 (single isomer, unassigned) [Example 7.8, 5-((4-(6-((4-(difluoromethyl)pyridin-2-yl)amino)-4-methylpyridin-2-yl) 1H-1,2,3-triazol-1-yl)methyl)-5-methyloxazolidin-2-one] | 1.9 |
| Cc1cc(Nc2cc(C(F)F)ccn2)nc(-c2cn(CC3(C)CNC(=O)O3)nn2)c1 (single isomer, unassigned) [Example 7.9, 5-((4-(6-((4-(difluoromethyl)pyridin-2-yl)amino)-4-methylpyridin-2-yl)-1H-1,2,3-triazol-1-yl)methyl)-5-methyloxazolidin-2-one] | 8.4 |
| Cc1cc(Nc2cc(C(F)F)ccn2)nc(-c2cn(C(C)C3CNC(=O)O3)nn2)c1 (single isomer, unassigned) [Example 7.10, 5-(1-(4-(6-((4-(difluoromethyl)pyridin-2-yl)amino)-4-methylpyridin-2-yl)-1H-1,2,3-triazol-1-yl)ethyl)oxazolidin-2-one] | 1.7 |
| Cc1cc(Nc2cc(C(F)F)ccn2)nc(-c2cn(C(C)C3CNC(=O)O3)nn2)c1 (single isomer, unassigned) [Example 7.11, 5-(1-(4-(6-((4-(difluoromethyl)pyridin-2-yl)amino)-4-methylpyridin-2-yl)-1H-1,2,3-triazol-1-yl)ethyl)oxazolidin-2-one] | 1.4 |
| Cc1cc(Nc2cc(C(F)F)ccn2)nc(-c2cn(CC3CNC(=O)O3)nn2)c1 (single isomer, unassigned) [Example 7.12, 5-((4-(6-((4-(difluoromethyl)pyridin-2-yl)amino)-4-methylpyridin-2-yl)-1H-1,2,3-triazol-1-yl)methyl)oxazolidin-2-one] | 2 |
| Cc1cc(Nc2cc(C(F)F)ccn2)nc(-c2cn(CC3CNC(=O)O3)nn2)c1 (single isomer, unassigned) [Example 7.13, 5-((4-(6-((4-(difluoromethyl)pyridin-2-yl)amino)-4-methylpyridin-2-yl)-1H-1,2,3-triazol-1-yl)methyl)oxazolidin-2-one] | 2 |
| Cc1cc(Nc2cc(C(F)F)ccn2)nc(-c2cn(CC3OC(=O)NC3C)nn2)c1 (single isomer, unassigned) [Example 7.14, 5-((4-(6-((4-(difluoromethyl)pyridin-2-yl)amino)-4-methylpyridin-2-yl)-1H-1,2,3-triazol-1-yl)methyl)-4-methyloxazolidin-2-one] | 1.6 |
| Cc1cc(Nc2cc(C(F)F)ccn2)nc(-c2cn(CC3OC(=O)NC3C)nn2)c1 (single isomer, unassigned) [Example 7.15, 5-((4-(6-((4-(difluoromethyl)pyridin-2-yl)amino)-4-methylpyridin-2-yl)-1H-1,2,3-triazol-1-yl)methyl)-4-methyloxazolidin-2-one] | 4.3 |
| Cc1cc(Nc2nccc(C(F)F)n2)cc(-c2cn(CC3OC(=O)NC34CC4)nn2)c1 (single isomer, unassigned) [Example 7.17, 7-((4-(3-((4-(difluoromethyl)pyrimidin-2-yl)amino)-5-methylphenyl)-1H-1,2,3-triazol-1-yl)methyl)-6-oxa-4-azaspiro[2.4]heptan-5-one] | 1.1 |
| Cc1cc(Nc2nccc(C(F)F)n2)cc(-c2cn(CC3OC(=O)NC34CC4)nn2)c1 (single isomer, unassigned) [Example 7.18, 7-((4-(3-((4-(difluoromethyl)pyrimidin-2-yl)amino)-5-methylphenyl)-1H-1,2,3-triazol-1-yl)methyl)-6-oxa-4-azaspiro[2.4]heptan-5-one] | 11.7 |
| Cc1cc(Nc2nccc(C(F)F)n2)cc(-c2cn(C3CCCCC3(C)O)nn2)c1 (single isomer, unassigned) [Example 7.19, 2-[4-(3-{[4-(difluoromethyl)pyrimidin-2-yl]amino}-5-methylphenyl)-1H-1,2,3-triazol-1-yl]-1-methylcyclohexanol] | 16.2 |
| Cc1cc(Nc2nccc(C(F)F)n2)cc(-c2cn(C3CCCCC3(C)O)nn2)c1 (single isomer, unassigned) [Example 7.20, 2-[4-(3-{[4-(difluoromethyl)pyrimidin-2-yl]amino}-5-methylphenyl)-1H-1,2,3-triazol-1-yl]-1-methylcyclohexanol] | 15.4 |
| Cc1cc(Nc2nccc(C)n2)cc(-c2cn(C3CCCCC3O)nn2)c1 (single isomer, unassigned) [Example 7.21, 2-(4-{3-methyl-5-[(4-methylpyrimidin-2-yl)amino]phenyl}-1H-1,2,3-triazol-1-yl)cyclohexanol] | 69.5 |
| Cc1cc(Nc2nccc(C)n2)cc(-c2cn(C3CCCCC3O)nn2)c1 (single isomer, unassigned) [Example 7.22, 2-(4-{3-methyl-5-[(4-methylpyrimidin-2-yl)amino]phenyl}-1H-1,2,3-triazol-1-yl)cyclohexanol] | 56 |
| Cc1cc(Nc2cc(C(F)F)ccn2)nc(-c2cn(C3CCCCC3O)nn2)c1 (single isomer, unassigned) [Example 7.23, 2-[4-(6-{[4-(difluoromethyl)pyridin-2-yl]amino}-4-methylpyridin-2-yl)-1H-1,2,3-triazol-1-yl]cyclohexanol] | 3.9 |
| Cc1cc(Nc2cc(C(F)F)ccn2)nc(-c2cn(C3CCCCC3O)nn2)c1 (single isomer, unassigned) [Example 7.24, 2-[4-(6-{[4-(difluoromethyl)pyridin-2-yl]amino}-4-methylpyridin-2-yl)-1H-1,2,3-triazol-1-yl]cyclohexanol] | 1.2 |
| Cc1cc(Nc2ncc(F)c(C(F)F)n2)cc(-c2cn(C3CCCCC3(C)O)nn2)c1 (single isomer, unassigned) [Example 7.25, 2-[4-(3-{[4-(difluoromethyl)-5-fluoropyrimidin-2-yl]amino}-5-methylphenyl)-1H-1,2,3-triazol-1-yl]-1-methylcyclohexanol] | 38.2 |
| Cc1cc(Nc2ncc(F)c(C(F)F)n2)cc(-c2cn(C3CCCCC3(C)O)nn2)c1 (single isomer, unassigned) [Example 7.26, 2-[4-(3-{[4-(difluoromethyl)-5-fluoropyrimidin-2-yl]amino}-5-methylphenyl)-1H-1,2,3-triazol-1-yl]-1-methylcyclohexanol] | 13.1 |
| Cc1cc(Nc2nccc(C)n2)cc(-c2cn(C3CCCCC3(C)O)nn2)c1 (single isomer, unassigned) [Example 7.27, 1-methyl-2-(4-{3-methyl-5-[(4-methylpyrimidin-2-yl)amino]phenyl}-1H-1,2,3-triazol-1-yl)cyclohexanol] | 90.4 |
